Data published in patent US20140128385A1 (NOVARTIS AG, priority 2011, published 2014).
Where a name gives a salt, the structure may show the parent alone.

target: T1, BACE-2 (Homo sapiens, UniProt Q9Y5Z0); assay: assay for inhibition of BACE-2; assay type: biochemical
T1 construct: Recombinant BACE-2 (extracellular domain, expressed in baculovirus and purified using standard methods); made in house
T1 sequence (Q9Y5Z0 63-473 limits assumed): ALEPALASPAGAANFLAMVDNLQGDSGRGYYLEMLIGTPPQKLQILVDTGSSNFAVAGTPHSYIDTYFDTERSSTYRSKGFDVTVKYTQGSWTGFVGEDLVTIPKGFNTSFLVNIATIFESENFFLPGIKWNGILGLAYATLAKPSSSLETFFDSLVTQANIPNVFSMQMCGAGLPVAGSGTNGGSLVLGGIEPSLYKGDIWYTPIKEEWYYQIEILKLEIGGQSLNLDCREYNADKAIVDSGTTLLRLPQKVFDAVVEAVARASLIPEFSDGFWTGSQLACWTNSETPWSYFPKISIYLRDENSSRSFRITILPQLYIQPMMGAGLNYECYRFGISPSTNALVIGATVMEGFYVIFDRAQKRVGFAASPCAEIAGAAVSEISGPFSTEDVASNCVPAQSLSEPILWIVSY

SMILES | IC50 [nM]
C[C@@]1(c2cccc(NC(=O)c3ccc(Br)cn3)n2)COCC(N)=N1 [Example 257, 5-Bromo-pyridine-2-carboxylic acid [6-((R)-5-amino-3-methyl-3,6-dihydro-2H-[1,4]-oxazin-3-yl)-pyridin-2-yl]-amide] | 256
COc1cnc(C(=O)Nc2ccc(F)c([C@]3(C(F)F)COCC(N)=N3)c2)c(OC)c1 [Example 179, 3,5-Dimethoxy-pyridine-2-carboxylic acid [3-((R)-5-amino-3-difluoromethyl-3,6-dihydro-2H-[1,4]oxazin-3-yl)-4-fluoro-phenyl]-amide hydrochloride] | 270
Cc1nc(C(=O)Nc2cccc(C3(C)COCC(N)=N3)c2)co1 (centres unmarked) [Example 5, 2-Methyl-oxazole-4-carboxylic acid [3-(5-amino-3-methyl-3,6-dihydro-2H-[1,4]oxazin-3-yl)-phenyl]-amide hydrochloride] | 373
C[C@@]1(c2cccc(NC(=O)c3ccc(Br)cn3)c2)CO[C@@](C)(C(F)(F)F)C(N)=N1 (relative stereo) [Example 66, 5-Bromo-pyridine-2-carboxylic acid [3-((3R*,6R*)-5-amino-3,6-dimethyl-6-trifluoromethyl-3,6-dihydro-2H-[1,4]oxazin-3-yl)-phenyl]-amide hydrochloride] | 6
Cc1cc(C#N)cnc1C(=O)Nc1cc(F)c(F)c([C@]2(C(F)F)COCC(N)=N2)c1 [Example 228, 5-Cyano-3-methyl-pyridine-2-carboxylic acid [3-((R)-5-amino-3-difluoromethyl-3,6-dihydro-2H-[1,4]oxazin-3-yl)-4,5-difluoro-phenyl]-amide] | 61
Cn1ccc(C(=O)Nc2ccc(F)c([C@]3(C(F)F)COCC(N)=N3)c2)n1 [Example 150] | 61
CCOc1ccc(C(=O)Nc2ccc(F)c([C@]3(C(F)F)COCC(N)=N3)c2)nc1 [Example 120] | 1060
Cc1cc(Br)cnc1C(=O)Nc1ccc(F)c(C2(C(F)F)CNCC(N)=N2)c1 (centres unmarked) [Example 210, 5-Bromo-3-methyl-pyridine-2-carboxylic acid [3-(6-amino-2-difluoromethyl-2,3,4,5-tetrahydro-pyrazin-2-yl)-4-fluoro-phenyl]-amide] | 23
Cc1c(C(=O)Nc2ccc(F)c([C@]3(C(F)F)COCC(N)=N3)c2)nnn1C [Example 173, 1,5-Dimethyl-1H-[1,2,3]triazole-4-carboxylic acid [3-((R)-5-amino-3-difluoromethyl-3,6-dihydro-2H-[1,4]oxazin-3-yl)-4-fluoro-phenyl]-amide hydrochloride] | > 10000
C[C@@]1(c2cc(NC(=O)c3ncc(Br)cn3)ccc2F)CO[C@@](C)(C(F)(F)F)C(N)=N1 [Example 71, 5-Bromo-pyrimidine-2-carboxylic acid [3-((3R,6R)-5-amino-3,6-dimethyl-6-trifluoromethyl-3,6-dihydro-2H-[1,4]oxazin-3-yl)-4-fluoro-phenyl]-amide hydrochloride] | 3
COCCOc1cnc(C(=O)Nc2cccc(C3(C(F)F)COCC(N)=N3)c2)cn1 (centres unmarked) [Example 109] | > 10000
NC1=N[C@@](c2cc(NC(=O)c3ncc(Br)cc3N)ccc2F)(C(F)F)COC1 [Example 165, 3-Amino-5-bromo-pyridine-2-carboxylic acid [3-((R)-5-amino-3-difluoromethyl-3,6-dihydro-2H-[1,4]oxazin-3-yl)-4-fluoro-phenyl]-amide hydrochloride] | 5
NC1=NC(c2cccc(NC(=O)c3ccc(O)nn3)c2)(C(F)F)COC1 (centres unmarked) [Example 103] | > 10000
Cc1cc(Cl)cnc1C(=O)Nc1ccc(F)c(C2(C)COC(CF)(CF)C(N)=N2)c1 (centres unmarked) [Example 255, 5-Chloro-3-methyl-pyridine-2-carboxylic acid [3-(5-amino-6,6-bis-fluoromethyl-3-methyl-3,6-dihydro-2H-[1,4]oxazin-3-yl)-4-fluoro-phenyl]-amide] | 9
NC1=NC(c2cc(NC(=O)c3ccc(Br)cn3)ccc2F)(C(F)(F)F)CCOC1 (centres unmarked) [Example 99] | 37
NC1=NC(CF)(c2ccnc(NC(=O)c3ccc(Cl)cn3)c2)COC1 (centres unmarked) [Example 270] | 4820
NC1=NC(c2cccc(NC(=O)c3cc(Br)co3)c2)(C(F)F)COC1 (centres unmarked) [Example 102] | 240
Cc1cc(C#N)cnc1C(=O)Nc1ccc(F)c([C@]2(C(F)F)COCC(N)=N2)c1 [Example 144] | 51
CC1(c2cc(NC(=O)c3ccc(Br)cn3)ccc2F)CN(c2cccnc2)C(=O)C(N)=N1 (centres unmarked) [Example 198, 5-Bromo-pyridine-2-carboxylic acid [3-(6-amino-2-methyl-5-oxo-4-pyridin-3-yl-2,3,4,5-tetrahydro-pyrazin-2-yl)-4-fluoro-phenyl]-amide hydrochloride] | 9
C[C@@]1(c2cc(NC(=O)c3ncc(C(F)(F)F)cc3Cl)ccc2F)CO[C@@](C)(C(F)(F)F)C(N)=N1 [Example 248, 3-Chloro-5-trifluoromethyl-pyridine-2-carboxylic acid [3-((3R,6R)-5-amino-3,6-dimethyl-6-trifluoromethyl-3,6-dihydro-2H-[1,4]oxazin-3-yl)-4-fluoro-phenyl]-amide] | 22
Cc1nc(C(=O)Nc2ccc(F)c([C@]3(C(F)F)COCC(N)=N3)c2)cs1 [Example 148] | 287

SMILES | IC50 [nM]
CC1(c2cccc(NC(=O)c3ccc(Br)cc3)c2)COCC(N)=N1 (centres unmarked) [Example 24, N-[3-(5-Amino-3-methyl-3,6-dihydro-2H-[1,4]oxazin-3-yl)-phenyl]-4-bromo-benzamide hydrochloride] | 1070
CC1(c2cccc(NC(=O)c3cnc(O)cn3)c2)COCC(N)=N1 (centres unmarked) [Example 19] | 3180
NC1=NC(c2cc(NC(=O)c3ccc(Br)cn3)ccc2F)(C(F)F)CNC1 (centres unmarked) [Example 201, 5-Bromo-pyridine-2-carboxylic acid [3-(6-amino-2-difluoromethyl-2,3,4,5-tetrahydro-pyrazin-2-yl)-4-fluoro-phenyl]-amide] | 24
CC1(c2cccc(NC(=O)c3ccc(O)nn3)c2)COCC(N)=N1 (centres unmarked) [Example 12, 6-Hydroxy-pyridazine-3-carboxylic acid [3-(5-amino-3-methyl-3,6-dihydro-2H-[1,4]oxazin-3-yl)-phenyl]-amide hydrochloride] | 2260
C[C@@]1(c2cc(NC(=O)c3ccc(C#N)cn3)ccc2F)CO[C@@](C)(C(F)(F)F)C(N)=N1 [Example 73] | 27
NC1=NC(c2cccc(NC(=O)c3ncc(Br)cc3O)c2)(C(F)F)COC1 (centres unmarked) [Example 108] | 24
Cc1cc(Br)cnc1C(=O)Nc1cccc(C2(C(F)F)COCC(N)=N2)c1 (centres unmarked) [Example 37] | 58
Cc1cc(OC(F)F)cnc1C(=O)Nc1ccc(F)c([C@]2(C)COC(CF)(CF)C(N)=N2)c1 [Example 254, 5-Difluoromethoxy-3-methyl-pyridine-2-carboxylic acid [3-((R)-5-amino-6,6-bis-fluoromethyl-3-methyl-3,6-dihydro-2H-[1,4]oxazin-3-yl)-4-fluoro-phenyl]-amide] | 59
[2H]C([2H])([2H])OCc1cc(F)cnc1C(=O)Nc1ccc(F)c([C@]2(C(F)F)COCC(N)=N2)c1 [Example 223] | 59
Cc1nc(C(=O)Nc2ccc(F)c([C@]3(C(F)F)COCC(N)=N3)c2)c(N)o1 [Example 168, 5-Amino-2-methyl-oxazole-4-carboxylic acid [3-((R)-5-amino-3-difluoromethyl-3,6-dihydro-2H-[1,4]oxazin-3-yl)-4-fluoro-phenyl]-amide hydrochloride] | 35
Cc1cc(Br)cnc1C(=O)Nc1ccc(F)c([C@]2(C(F)F)COCC(N)=N2)c1 [Example 45] | 10
Cc1c(C(=O)Nc2ccc(F)c([C@]3(C(F)F)COCC(N)=N3)c2)oc2ccc(CN(C)C)cc12 [Example 172, 5-Dimethylaminomethyl-3-methyl-benzofuran-2-carboxylic acid [3-((R)-5-amino-3-difluoromethyl-3,6-dihydro-2H-[1,4]oxazin-3-yl)-4-fluoro-phenyl]-amide hydrochloride] | 7
NC1=N[C@@](c2cc(NC(=O)c3ncc(Cl)cc3Cl)ccc2F)(C(F)F)COC1 [Example 111] | 7
NC1=N[C@@](c2cc(NC(=O)c3ccc(Br)cn3)ccc2F)(C(F)F)CCOC1 [Example 97] | 11
COCCOc1cnc(C(=O)Nc2ccc(F)c([C@]3(C(F)F)COCC(N)=N3)c2)cn1 [Example 135] | 1090
Cc1cc(Br)cnc1C(=O)Nc1ccc(F)c(C2(C(F)F)CN(C(=O)C3CC3)CC(N)=N2)c1 (centres unmarked) [Example 209, 5-Bromo-3-methyl-pyridine-2-carboxylic acid [3-(6-amino-4-cyclopropanecarbonyl-2-difluoromethyl-2,3,4,5-tetrahydro-pyrazin-2-yl)-4-fluoro-phenyl]-amide] | 6
C[C@]1(c2cccc(NC(=O)c3ccc(Br)cn3)c2)COCC(N)=N1 [Example 4, 5-Bromo-pyridine-2-carboxylic acid [3-((S)-5-amino-3-methyl-3,6-dihydro-2H-[1,4]oxazin-3-yl)-phenyl]-amide hydrochloride] | > 10000
C#CCOc1cnc(C(=O)Nc2ccc(F)c([C@]3(C(F)F)COCC(N)=N3)c2)c(N)n1 [Example 218] | 125
COc1cnc(C(=O)Nc2ccc(F)c([C@]3(C(F)F)CNCC(N)=N3)c2)c(N)n1 (single isomer, unassigned) [Example 213] | 115
CC1(c2cccc(NC(=O)C3CCC(F)(F)CC3)c2)COCC(N)=N1 (centres unmarked) [Example 26, 4,4-Difluoro-cyclohexanecarboxylic acid [3-(5-amino-3-methyl-3,6-dihydro-2H-[1,4]oxazin-3-yl)-phenyl]-amide hydrochloride] | > 10000
